Legend:
[1] = target: T1, MLKL (Homo sapiens, UniProt Q8NB16); assay: MLKL degradation assay in HepG2 cell line (western blot); type: cell-based; design: endogenous in cells; host or cells: HepG2 or HaCaT; details: cell line not given; for Degradation assay (Degradation %) 1 μM: compound 1 μM; for Degradation assay (Degradation %) 10 μM: compound 10 μM
T1 sequence (Q8NB16 1-471): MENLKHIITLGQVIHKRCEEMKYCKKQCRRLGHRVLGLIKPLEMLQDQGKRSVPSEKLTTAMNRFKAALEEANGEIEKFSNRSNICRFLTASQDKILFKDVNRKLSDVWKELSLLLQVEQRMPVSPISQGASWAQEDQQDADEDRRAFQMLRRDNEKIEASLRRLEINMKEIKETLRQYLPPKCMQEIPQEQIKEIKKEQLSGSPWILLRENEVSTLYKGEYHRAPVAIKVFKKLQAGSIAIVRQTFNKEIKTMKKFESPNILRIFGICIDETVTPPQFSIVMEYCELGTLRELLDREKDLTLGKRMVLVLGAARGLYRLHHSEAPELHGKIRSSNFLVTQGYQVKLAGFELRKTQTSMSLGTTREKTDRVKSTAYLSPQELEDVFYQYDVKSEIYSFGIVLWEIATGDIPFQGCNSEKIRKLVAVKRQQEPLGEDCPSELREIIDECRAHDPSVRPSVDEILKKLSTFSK
Method in brief: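 Degradation is judged from MLKL band intensity on immunoblots of HepG2 lysates taken after 20-24 hours of compound at final 1 or 10 μM.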

[2] = test system: FADD−/− Jurkat cells; assay: Necroptosis inhibition assay, TNF-α-induced necroptosis (CellTiter-Glo 2.0); type: cell-based, human; details: TNF-α 15 ng/mL; for Necroptosis inhibition assay (Rescue %) 1 μM: compound 1 μM; for Necroptosis inhibition assay (Rescue %) 10 μM: compound 10 μM
Method in brief: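 Tested at three fixed concentrations (0.1, 1, 10 μM final) with a 30-minute room-temperature preincubation ahead of 15 ng/mL TNF-α challenge lasting 20 to 24 hours. Inhibition rate and cytotoxicity derive from ATP luminescence.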

[3] = target: T1, MLKL; assay: Measurement of binding affinity with MLKL receptor (competitive binding assay, Kd); design: made in house; host or cells: HEK 293 cell line (T7 phage in E. coli BL21-derived host is also described)
Method in brief: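 qPCR of MLKL eluted from liganded beads served as the read-out, from which Kd was derived. The protein was made in HEK 293 cells with a DNA tag, and test compounds competed with the bead-bound ligand at 0.9% final DMSO.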

Degradation assay (Degradation %) 1 μM [1] [%] | Degradation assay (Degradation %) 10 μM [1] [%] | Kd [3] [nM] | SMILES | Necroptosis inhibition assay (Rescue %) 1 μM [2] [%] | Necroptosis inhibition assay (Rescue %) 10 μM [2] [%]
37.66 | 24.63 | 9.2 | Nc1ncc(-c2cnn(C3CCN(CCOCCOCCOCCNc4cccc5c4C(=O)N(C4CCC(=O)NC4=O)C5=O)CC3)c2)nc1C(=O)O[C@@H](C(=O)Nc1ccc(F)cc1)c1ccccc1 (stereo partly drawn) [TDH-153, (R)-2-((4-fluorophenyl)amino)-2-oxo-1-phenylethyl 3-amino-6-(1-(1-(2-(2-(2-(2-((2-(2,6-dioxopiperidin-3-yl)-1,3-dioxoisoindolin-4-yl)amino)ethoxy)ethoxy)ethoxy)ethyl)piperidin-4-yl)-1H-pyrazol-4-yl)pyrazine-2-carboxylate] | 37.21 | 16.52
25.56 | 28.19 | 3.8 | Nc1ncc(-c2cnn(C3CCN(CCOCCOCCOCCNc4ccc5c(c4)C(=O)N(C4CCC(=O)NC4=O)C5=O)CC3)c2)nc1C(=O)O[C@@H](C(=O)Nc1ccc(F)cc1)c1ccccc1 (stereo partly drawn) [TDH-154, (R)-2-((4-fluorophenyl)amino)-2-oxo-1-phenylethyl 3-amino-6-(1-(1-(2-(2-(2-(2-((2-(2,6-dioxopiperidin-3-yl)-1,3-dioxoisoindolin-5-yl)amino)ethoxy)ethoxy)ethoxy)ethyl)piperidin-4-yl)-1H-pyrazol-4-yl)pyrazine-2-carboxylate] | 37.01 | 23.23
31.35 | 63.85 | 9.5 | Nc1ncc(-c2cnn(C3CCN(CCOCCOCCOCCNC(=O)COc4cccc5c4C(=O)N(C4CCC(=O)NC4=O)C5=O)CC3)c2)nc1C(=O)O[C@@H](C(=O)Nc1ccc(F)cc1)c1ccccc1 (stereo partly drawn) [TDH-155, (R)-2-((4-fluorophenyl)amino)-2-oxo-1-phenylethyl 3-amino-6-(1-(1-(1-((2-(2,6-dioxopiperidin-3-yl)-1,3-dioxoisoindolin-4-yl)oxy)-2-oxo-6,9,12-trioxa-3-azatetradecan-14-yl)piperidin-4-yl)-1H-pyrazol-4-yl)pyrazine-2-carboxylate] | 31.1 | 64.6
31.35 | 18.75 | 53 | Nc1ncc(-c2cnn(C3CCN(CCCCCCCCCCNC(=O)C4CCN(c5cccc6c5C(=O)N(C5CCC(=O)NC5=O)C6=O)CC4)CC3)c2)nc1C(=O)O[C@@H](C(=O)Nc1ccc(F)cc1)c1ccccc1 (stereo partly drawn) [TDH-156, (R)-2-((4-fluorophenyl)amino)-2-oxo-1-phenylethyl 3-amino-6-(1-(1-(10-(1-(2-(2,6-dioxopiperidin-3-yl)-1,3-dioxoisoindolin-4-yl)piperidine-4-carboxamido)decyl)piperidin-4-yl)-1H-pyrazol-4-yl)pyrazine-2-carboxylate] | 19.9 | 21.77
62.45 | 64.73 | 47 | Nc1ncc(-c2cnn(C3CCN(CCCCCCCCCCNC(=O)C4CCN(c5ccc6c(c5)C(=O)N(C5CCC(=O)NC5=O)C6=O)CC4)CC3)c2)nc1C(=O)O[C@@H](C(=O)Nc1ccc(F)cc1)c1ccccc1 (stereo partly drawn) [TDH-157, (R)-2-((4-fluorophenyl)amino)-2-oxo-1-phenylethyl 3-amino-6-(1-(1-(10-(1-(2-(2,6-dioxopiperidin-3-yl)-1,3-dioxoisoindolin-5-yl)piperidine-4-carboxamido)decyl)piperidin-4-yl)-1H-pyrazol-4-yl)pyrazine-2-carboxylate] | 37.7 | 45.37
 | 29.21 | 18 | Nc1ncc(-c2cnn(C3CCN(CCCCCCCCCCNC(=O)C4CN(c5ccc6c(c5)C(=O)N(C5CCC(=O)NC5=O)C6=O)C4)CC3)c2)nc1C(=O)O[C@@H](C(=O)Nc1ccc(F)cc1)c1ccccc1 (stereo partly drawn) [TDH-159, (R)-2-((4-fluorophenyl)amino)-2-oxo-1-phenylethyl 3-amino-6-(1-(1-(10-(1-(2-(2,6-dioxopiperidin-3-yl)-1,3-dioxoisoindolin-5-yl)azetidine-3-carboxamido)decyl)piperidin-4-yl)-1H-pyrazol-4-yl)pyrazine-2-carboxylate] | 33.57 | 34.1
55.2 | 46.68 | 20 | Nc1ncc(-c2cnn(C3CCN(CCCCCCCCCCNC(=O)COc4ccc5c(c4)C(=O)N(C4CCC(=O)NC4=O)C5=O)CC3)c2)nc1C(=O)O[C@@H](C(=O)Nc1ccc(F)cc1)c1ccccc1 (stereo partly drawn) [TDH-164, (R)-2-((4-fluorophenyl)amino)-2-oxo-1-phenylethyl 3-amino-6-(1-(1-(10-(2-((2-(2,6-dioxopiperidin-3-yl)-1,3-dioxoisoindolin-5-yl)oxy)acetamido)decyl)piperidin-4-yl)-1H-pyrazol-4-yl)pyrazine-2-carboxylate] | 27.84 | 10.5
62.49 | 61.44 | 0.9 | Nc1ncc(-c2cnn(C3CCN(CCCCCCNC(=O)COc4ccc5c(c4)C(=O)N(C4CCC(=O)NC4=O)C5=O)CC3)c2)nc1C(=O)O[C@@H](C(=O)Nc1ccc(F)cc1)c1ccccc1 (stereo partly drawn) [TDH-165, (R)-2-((4-fluorophenyl)amino)-2-oxo-1-phenylethyl 3-amino-6-(1-(1-(6-(2-((2-(2,6-dioxopiperidin-3-yl)-1,3-dioxoisoindolin-5-yl)oxy)acetamido)hexyl)piperidin-4-yl)-1H-pyrazol-4-yl)pyrazine-2-carboxylate] | 52.37 | 4.66
18.17 | 60.05 | 3.4 | Nc1ncc(-c2cnn(C3CCN(CCOCCOCCOCCNC(=O)COc4ccc5c(c4)C(=O)N(C4CCC(=O)NC4=O)C5=O)CC3)c2)nc1C(=O)O[C@@H](C(=O)Nc1ccc(F)cc1)c1ccccc1 (stereo partly drawn) [TDH-166, (R)-2-((4-fluorophenyl)amino)-2-oxo-1-phenylethyl 3-amino-6-(1-(1-(1-((2-(2,6-dioxopiperidin-3-yl)-1,3-dioxoisoindolin-5-yl)oxy)-2-oxo-6,9,12-trioxa-3-azatetradecan-14-yl)piperidin-4-yl)-1H-pyrazol-4-yl)pyrazine-2-carboxylate] | 27.44 | 65.57
36.7 | 60.91 | 1.7 | Nc1ncc(-c2cnn(C3CCN(CCOCCOCCNC(=O)COc4ccc5c(c4)C(=O)N(C4CCC(=O)NC4=O)C5=O)CC3)c2)nc1C(=O)O[C@@H](C(=O)Nc1ccc(F)cc1)c1ccccc1 (stereo partly drawn) [TDH-167, (R)-2-((4-fluorophenyl)amino)-2-oxo-1-phenylethyl 3-amino-6-(1-(1-(2-(2-(2-(2-((2-(2,6-dioxopiperidin-3-yl)-1,3-dioxoisoindolin-5-yl)oxy)acetamido)ethoxy)ethoxy)ethyl)piperidin-4-yl)-1H-pyrazol-4-yl)pyrazine-2-carboxylate] | 45.5 | 38.58
